Read-outs that look alike come from different tables or passages of the source.
System: genotype 1b (Con-1) HCV replicon
Experiment: HCV Replicon Luciferase Assay (genotype 1b)
Type: cell-based
Conditions: Hepatitis C virus, 72 h, genotype 1b replicon in Huh-7 cells, Renilla luciferase, 3 days incubation
Method: The cell lines used to evaluate compounds consist of a human hepatocyte derived cell line (Huh-7) that constitutively expresses a genotype 1b (Con-1) HCV replicon or a genotype 1b (Con-1) HCV replicon with an asparagine replacing the cysteine at amino acid 316, or a genotype 2a (JFH-1) replicon, containing a Renilla luciferase reporter gene. These cells were maintained in Dulbecco's modified Eagle medium (DMEM) containing 10% FBS, 100 U/mL penicillin/streptomycin and 1.0 mg/mL G418.
To evaluate compound efficacy, titrated compounds were transferred to sterile 384-well tissue culture treated plates, and the plates were seeded with HCV replicon cells (50 μL at a density of 2.4×10^3 cells/well) in DMEM containing 4% FBS (final DMSO concentration at 0.5%). After 3 days incubation at 37° C., cells were analyzed for Renilla Luciferase activity using the EnduRen substrate (Promega cat #E6485) according to the manufacturer's directions. Briefly, the EnduRen substrate was diluted in DMEM and then added to the plates to a final concentration of 7.5 μM. The plates were incubated for at least 1 h at 37° C. then read on a Viewlux Imager (PerkinElmer) using a luminescence program. The 50% effective concentration (EC50) was calculated using the four-parameter logistic formula noted above.
Compound EC50 data is expressed as A: <100 nM; B=100-1000 nM; C>1000 nM).

Compound | EC50 (read-out: EC50 1b (class)) [µM] | EC50 (read-out: EC50 (uM) 1b) [µM]
CNC(=O)c1c(-c2ccc(F)cc2)oc2nc(NCC(F)(F)F)c(-c3cccc(C(=O)NC(CF)(CF)CF)c3)cc12 [Compound 30001] | < 0.1 | –
CNC(=O)c1c(-c2ccc(F)cc2)oc2nc(CCC(F)(F)F)c(-c3ccc(F)c(C(=O)NC(C)C(F)(F)F)c3)cc12 (stereo not shown) [Compound 22001] | < 0.1 | 0.0108
CNC(=O)c1c(-c2ccc(F)cc2)oc2nc(NCC(F)(F)F)c(-c3cccc(C(=O)NC(C)(C)C(=O)OC)c3)cc12 [Compound 30009] | < 0.1 | –
CNC(=O)c1c(-c2ccc(F)cc2)oc2nc(Cl)c(-c3cccc(C(=O)NC(CF)(CF)CF)c3)cc12 [Compound 11001] | 0.1 to 1 | –
CC[C@@H](NC(=O)c1cccc(-c2cc3c(C(=O)NC)c(-c4ccc(F)cc4)oc3nc2CCC(F)(F)F)c1)C1CC1 [Compound 20009] | < 0.1 | 0.01
[2H]C([2H])([2H])C(NC(=O)c1cc(-c2cc3c(C(=O)NC)c(-c4ccc(F)cc4)oc3nc2NCC(F)(F)C(F)(F)F)ccc1OC)(C([2H])([2H])[2H])C([2H])([2H])[2H] [Compound 41005] | < 0.1 | –
C#CC(C)(C)NC(=O)c1cccc(-c2cc3c(C(=O)NC)c(-c4ccc(F)cc4)oc3nc2NCC(F)(F)C(F)(F)F)c1 [Compound 40005] | 0.1 to 1 | –
CNC(=O)c1c(-c2ccc(F)cc2)oc2nc(NCC(F)(F)F)c(-c3cccc(C(=O)NC(C)C(F)(F)F)c3)cc12 (stereo not shown) [Compound 30004] | < 0.1 | –
CNC(=O)c1c(-c2ccc(F)cc2)oc2nc(CCC(F)(F)F)c(-c3cccc(C(=O)NCC(F)F)c3)cc12 [Compound 20021] | < 0.1 | –
CNC(=O)c1c(-c2ccc(F)cc2)oc2nc(CCC(F)(F)F)c(-c3cccc(C(=O)NC(C)(C)CCO)c3)cc12 [Compound 20036] | < 0.1 | –
CNC(=O)c1c(-c2ccc(F)cc2)oc2nc(CCC(F)(F)F)c(-c3cccc(C(=O)NCC(C)(C)COC)c3)cc12 [Compound 20033] | < 0.1 | –
CNC(=O)c1c(-c2ccc(F)cc2)oc2nc(CCC(F)(F)F)c(-c3cccc(C(=O)N4CC5(CCC5C(=O)OC)C4)c3)cc12 (stereo not shown) [Compound 20018] | 0.1 to 1 | 0.11
CNC(=O)c1c(-c2ccc(F)cc2)oc2nc(CCC(F)(F)F)c(-c3cccc(C(=O)NC(C)C4CC4)c3)cc12 (stereo not shown) [Compound 20013] | < 0.1 | –
CNC(=O)c1c(-c2ccc(F)cc2)oc2nc(NCC(F)(F)C(F)(F)F)c(-c3ccc(OC)c(C(=O)NCC(C)(C)C)c3)cc12 [Compound 41002] | < 0.1 | –
CNC(=O)c1c(-c2ccc(F)cc2)oc2nc(CCC(F)(F)F)c(-c3cccc(C(=O)N[C@H](C)C4CC4)c3)cc12 [Compound 20012] | < 0.1 | –
CNC(=O)c1c(-c2ccc(F)cc2)oc2nc(NCC(F)(F)F)c(-c3cccc(C(=O)N[C@H](CO)c4ccccc4)c3)cc12 [Compound 30016] | < 0.1 | –
CNC(=O)c1c(-c2ccc(F)cc2)oc2nc(CCC(F)(F)F)c(-c3cccc(C(=O)NCC4(COC)CC4)c3)cc12 [Compound 20032] | < 0.1 | –
CNC(=O)c1c(-c2ccc(F)cc2)oc2nc(CCC(F)(F)F)c(-c3cccc(C(=O)NC4CCNC4=O)c3)cc12 (stereo not shown) [Compound 20020] | < 0.1 | 0.0519
CNC(=O)c1c(-c2ccc(F)cc2)oc2nc(CCC(F)(F)F)c(-c3cccc(C(=O)NC(C)(C)CF)c3)cc12 [Compound 20025] | < 0.1 | –
C#CC(C)(C)NC(=O)c1cccc(-c2cc3c(C(=O)NC)c(-c4ccc(F)cc4)oc3nc2CCC(F)(F)F)c1 [Compound 20003] | < 0.1 | 0.004
CNC(=O)c1c(-c2ccc(F)cc2)oc2nc(NCC(F)(F)F)c(-c3cccc(C(=O)NC(C4CC4)C(F)(F)F)c3)cc12 (stereo not shown) [Compound 30007] | < 0.1 | –
CNC(=O)c1c(-c2ccc(F)cc2)oc2nc(NCCO)c(-c3cccc(C(=O)NC(CF)(CF)CF)c3)cc12 [Compound 42002] | < 0.1 | –
CCC(NC(=O)c1cccc(-c2cc3c(C(=O)NC)c(-c4ccc(F)cc4)oc3nc2CCC(F)(F)F)c1)C(F)(F)F (stereo not shown) [Compound 20005] | < 0.1 | –
CNC(=O)c1c(-c2ccc(F)cc2)oc2nc(CCC(F)(F)F)c(-c3cccc(C(=O)N[C@@H](C)C4CC4)c3)cc12 [Compound 20011] | < 0.1 | –

Compound | EC50 (read-out: EC50 1b (class)) [µM] | EC50 (read-out: EC50 (uM) 1b) [µM]
CNC(=O)c1c(-c2ccc(F)cc2)oc2nc(CCC(F)(F)F)c(-c3ccc(OC)c(C(=O)NCC(F)(F)C(F)(F)C(F)(F)F)c3)cc12 [Compound 21002] | < 0.1 | –
CNC(=O)c1c(-c2ccc(F)cc2)oc2nc(CCC(F)(F)F)c(-c3cccc(C(=O)NC4CCOC4)c3)cc12 (stereo not shown) [Compound 20034] | < 0.1 | 0.0118
CNC(=O)c1c(-c2ccc(F)cc2)oc2nc(CCC(F)(F)F)c(-c3cccc(C(=O)NC4CCOCC4)c3)cc12 [Compound 20031] | < 0.1 | 0.0136
CNC(=O)c1c(-c2ccc(F)cc2)oc2nc(CCC(F)(F)F)c(-c3cccc(C(=O)NCC(C)(C)C)c3)cc12 [Compound 20030] | < 0.1 | –
CC[C@H](NC(=O)c1cccc(-c2cc3c(C(=O)NC)c(-c4ccc(F)cc4)oc3nc2CCC(F)(F)F)c1)C1CC1 [Compound 20010] | < 0.1 | –
C#CC(C)(C)NC(=O)c1cccc(-c2cc3c(C(=O)NC)c(-c4ccc(F)cc4)oc3nc2NCC(F)(F)F)c1 [Compound 30002] | < 0.1 | 0.0037
C#CC(C)(C)NC(=O)c1cc(-c2cc3c(C(=O)NC)c(-c4ccc(F)cc4)oc3nc2NCC(F)(F)C(F)(F)F)ccc1OC [Compound 41004] | < 0.1 | 0.0173
CNC(=O)c1c(-c2ccc(F)cc2)oc2nc(CCC(F)(F)F)c(-c3cccc(C(=O)NC(c4ccccc4)C4CC4)c3)cc12 (stereo not shown) [Compound 20017] | < 0.1 | –
CNC(=O)c1c(-c2ccc(F)cc2)oc2nc(CCC(F)(F)F)c(-c3cccc(C(=O)N[C@H](COC)C4CC4)c3)cc12 [Compound 20015] | < 0.1 | 0.0056
CNC(=O)c1c(-c2ccc(F)cc2)oc2nc(CCC(F)(F)F)c(-c3cccc(C(=O)NC(CF)(CF)CF)c3)cc12 [Compound 20002] | < 0.1 | –
CNC(=O)c1c(-c2ccc(F)cc2)oc2nc(NCC(F)(F)C(F)(F)F)c(-c3cccc(C(=O)NC(C)(C)C)c3)cc12 [Compound 40002] | < 0.1 | –
CNC(=O)c1c(-c2ccc(F)cc2)oc2nc(NCC(F)(F)C(F)(F)F)c(-c3cccc(C(=O)NC(CF)(CF)CF)c3)cc12 [Compound 40004] | < 0.1 | –
CNC(=O)c1c(-c2ccc(F)cc2)oc2nc(NCC(F)(F)F)c(-c3cccc(C(=O)N[C@@H](CO)c4ccccc4)c3)cc12 [Compound 30012] | < 0.1 | 0.0239
CNC(=O)c1c(-c2ccc(F)cc2)oc2nc(NCCO)c(-c3cccc(C(=O)NC(C)(C)C(F)(F)F)c3)cc12 [Compound 42001] | < 0.1 | –
CNC(=O)c1c(-c2ccc(F)cc2)oc2nc(Cl)c(-c3ccc(OC)c(C(=O)NC(CF)(CF)CF)c3)cc12 [Compound 10003] | 0.1 to 1 | –
CNC(=O)c1c(-c2ccc(F)cc2)oc2nc(NCC(F)(F)C(F)(F)F)c(-c3cccc(C(=O)NCC(C)(C)C)c3)cc12 [Compound 40001] | < 0.1 | 0.0982
[2H]C([2H])([2H])C(NC(=O)c1cccc(-c2cc3c(C(=O)NC)c(-c4ccc(F)cc4)oc3nc2NCCO)c1)(C([2H])([2H])[2H])C([2H])([2H])[2H] [Compound 42003] | < 0.1 | 0.0144
CNC(=O)c1c(-c2ccc(F)cc2)oc2nc(CCC(F)(F)F)c(-c3cccc(C(=O)NC(C)(C)C4CC4)c3)cc12 [Compound 20007] | < 0.1 | –
CNC(=O)c1c(-c2ccc(F)cc2)oc2nc(CCC(F)(F)F)c(-c3cccc(C(=O)NCC(F)(F)F)c3)cc12 [Compound 20019] | < 0.1 | –
CNC(=O)c1c(-c2ccc(F)cc2)oc2nc(CCC(F)(F)F)c(-c3cccc(C(=O)NC(C)(C)C(=O)OC)c3)cc12 [Compound 20023] | < 0.1 | –
CNC(=O)c1c(-c2ccc(F)cc2)oc2nc(CCC(F)(F)F)c(-c3ccc(F)c(C(=O)NC(C)(C)C(F)(F)F)c3)cc12 [Compound 22003] | < 0.1 | –
CNC(=O)c1c(-c2ccc(F)cc2)oc2nc(CCC(F)(F)F)c(-c3cccc(C(=O)NC(C)(CO)CO)c3)cc12 [Compound 20027] | < 0.1 | –
CNC(=O)c1c(-c2ccc(F)cc2)oc2nc(CCC(F)(F)F)c(-c3cccc(C(=O)NCC(F)(F)C(F)(F)F)c3)cc12 [Compound 20022] | < 0.1 | 0.0059
